# Laboratory results taken from patent publication US10131652B2, “Pyrimidinyloxy benzene derivatives as herbicides” (E. I. DU PONT DE NEMOURS AND COMPANY, priority 2014, dated 2018).
# Key:
# Assay in all cases: Test D flooded paddy test plant response
# Type in all cases: in vivo
# Details in all cases: Flood (flooded paddy test), visual rating on scale 0 to 100 (0 no effect, 100 complete control), 13 to 15 days
# [1] = test system: barnyardgrass (Echinochloa crus-galli)
# Text: (§1) Plant species in the flooded paddy test consisted of rice (Oryza sativa), small-flower umbrella sedge (Cyperus difformis), ducksalad (Heteranthera limosa), and bamyardgrass (Echinochloa crus-galli) grown to the 2-leaf stage for testing. At time of treatment, test pots were flooded to 3 cm above the soil surface, treated by application of test compounds directly to the paddy water, and then maintained at that water depth for the duration of the test. Treated plants and controls were maintained in a greenhouse for 13 to 15 days, after which time all species were compared to controls and visually evaluated. Plant response ratings, summarized in Table D, are based on a scale of 0 to 100 where 0 is no effect and 100 is complete control. A dash (-) response means no test result.
# [2] = test system: ducksalad (Heteranthera limosa)
# Text: as §1
# [3] = test system: small-flower umbrella sedge (Cyperus difformis)
# Text: as §1
# rice (Oryza sativa) = test system: rice (Oryza sativa)
# Text: as §1
Structure (SMILES),"Plant response rating, Barnyardgrass ([1]; 31 g ai/ha)","Plant response rating, Barnyardgrass ([1]; 62 g ai/ha)","Plant response rating, Barnyardgrass ([1]; 125 g ai/ha)","Plant response rating, Barnyardgrass ([1]; 250 g ai/ha)","Plant response rating, Ducksalad ([2]; 31 g ai/ha)","Plant response rating, Ducksalad ([2]; 62 g ai/ha)","Plant response rating, Ducksalad ([2]; 125 g ai/ha)","Plant response rating, Ducksalad ([2]; 250 g ai/ha)","Plant response rating, Sedge, Umbrella ([3]; 31 g ai/ha)","Plant response rating, Sedge, Umbrella ([3]; 62 g ai/ha)","Plant response rating, Sedge, Umbrella ([3]; 125 g ai/ha)","Plant response rating, Sedge, Umbrella ([3]; 250 g ai/ha)","Plant response rating, Rice (rice (Oryza sativa); 31 g ai/ha)","Plant response rating, Rice (rice (Oryza sativa); 62 g ai/ha)","Plant response rating, Rice (rice (Oryza sativa); 125 g ai/ha)","Plant response rating, Rice (rice (Oryza sativa); 250 g ai/ha)"
N#Cc1cccc(Oc2ncc(Cl)cn2)c1-c1cc(C(F)F)on1 [Compound 180],0,0,10,10,0,0,75,75,0,50,75,80,0,0,0,0
"FCc1cc(-c2ccccc2Oc2ncc(Cl)cn2)no1 [Compound 32, 5-chloro-2-[2-[5-(fluoromethyl)-3-isoxazolyl]phenoxy]pyrimidine]",0,0,10,20,0,60,65,95,0,40,65,90,0,0,0,15
